In US9199997B2, “Purinone derivative hydrochloride” (ONO PHARMACEUTICAL CO., LTD., priority 2011, dated 2015):
Values after ≈ are worked out from the molar mass of the structure shown.

Key:
[1] = Measurement of solubility (HPLC); format: physicochemical; settings: thermodynamic from solid; for solubility at 30 min: after 30 min; for solubility at 24 h: after 24 h
Procedure: <HPLC Measurement Conditions>
Device: HPLC 1100series, Agilent
Column: YMC-Pack ODS-AM AM-302 (4.6 mm ID×150 mm long)
Column temperature: 25° C.
Mobile phase: 20 mM potassium phosphate monobasic (pH 3.0)/acetonitrile (60:40, isocratic)
Sample rack temperature: 25° C.
Sample injection volume: 10 μL

Blood kinetics in dogs = format: in vivo; settings: male, beagle, dog, plasma; solubilized solution (WellSolve), oral gavage 1 mg/kg vs intravenous 1 mg/kg, fasted dogs; read-out: bioavailability (BA)
Procedure: The kinetic profiles of compound A and the salt thereof (the compound prepared in Example 9) in blood were evaluated in male beagle dogs under fasting conditions. […] For the intravenous and oral solution administrations, a solubilized solution of Compound A dissolved in WellSolve (Celeste Inc.) heated to 60° C. was used. Using the solubilized solutions, doses of 1 mg/1 mL/kg were rapidly administered intravenously with a syringe via a forelimb cephalic vein, and doses of 1 mg/5 mL/kg were administered by gavage using a catheter. […] The concentration of Compound A in the plasma was measured by LC/MS/MS (UPLC/Xevo, Waters). The area under the curve (AUC, ng·h/mL), maximum concentration (Cmax, μg/mL) and clearance (CL, mL/hr/kg) were calculated from the plasma concentration. The bioavailability (BA) of Compound A was calculated from the AUC of the oral dose and the AUC of the intravenous dose.
Moreover, for the oral suspension administration a liquid was prepared by finely pulverizing Compound A and suspending the particles in an aqueous solution of 0.5% methylcellulose, and then administering doses of 3 and 10 mg/kg in the same manner as the forced oral administration by gavage described above. […] The BA values for each administration method and at each concentration were calculated as relative BA by assigning the BA of Compound A in the solubilized solution a value of 100%.

[2] = FaSSIF (artificial intestinal fluid), FaSSIF (pH 6.5)
[3] = FeSSIF (artificial intestinal fluid), FeSSIF (pH 6.5)
[4] = Japanese Pharmacopoeia dissolution test I liquid, simulated gastric fluid, JP dissolution test I liquid (pH 1.2)
[5] = Japanese Pharmacopoeia dissolution test II liquid, aqueous buffer, JP dissolution test II liquid (pH 6.8)
[6] = diluted McIlvaine buffer, aqueous buffer, Dilute McIlvaine buffer (pH 4.0)
[7] = diluted McIlvaine buffer, aqueous buffer, Dilute McIlvaine buffer (pH 7.4)

Row | Structure (SMILES) | solubility at 30 min [1, 2] [µg/mL] | solubility at 24 h [1, 2] [µg/mL] | solubility at 30 min [1, 3] [µg/mL] | solubility at 24 h [1, 3] [µg/mL] | solubility at 30 min [1, 4] [µg/mL] | solubility at 24 h [1, 4] [µg/mL] | solubility at 30 min [1, 5] [µg/mL] | solubility at 24 h [1, 5] [µg/mL] | solubility at 30 min [1, 6] [µg/mL] | solubility at 24 h [1, 6] [µg/mL] | solubility at 30 min [1, 7] [µg/mL] | solubility at 24 h [1, 7] [µg/mL] | solubility at 30 min ([1]; Purified water) [µg/mL] | solubility at 24 h ([1]; Purified water) [µg/mL] | bioavailability (Blood kinetics in dogs) [%]
1 | CC#CC(=O)N1CC[C@@H](n2c(=O)n(-c3ccc(Oc4ccccc4)cc3)c3c(N)ncnc32)C1 [Compound A, 6-amino-9-[(3R)-1-(2-butynoyl)-3-pyrrolidinyl]-7-(4-phenoxyphenyl)-7,9-dihydro-8H-purin-8-one] | 35 (≈ 77 µM) | 36 (≈ 79.2 µM) | 67 (≈ 147 µM) | 84 (≈ 185 µM) | 550 (≈ 1210 µM) | 717 (≈ 1580 µM) | 31 (≈ 68.2 µM) | 32 (≈ 70.4 µM) | 30 (≈ 66 µM) | 34 (≈ 74.8 µM) | 29 (≈ 63.8 µM) | 29 (≈ 63.8 µM) | 32 (≈ 70.4 µM) | 34 (≈ 74.8 µM) | 115
2 | CC#CC(=O)N1CC[C@@H](n2c(=O)n(-c3ccc(Oc4ccccc4)cc3)c3c(N)ncnc32)C1.Cl [Example 9, 6-amino-9-[(3R)-1-(2-butynoyl)-3-pyrrolidinyl]-7-(4-phenoxyphenyl)-7,9-dihydro-8H-purin-8-one hydrochloride] | 145 | 118 | 356 | 301 | 1220 | 1210 | 112 | 111 | 125 | 117 | 103 | 106 | 130 | 144 | –
